# Tests used:
# [1] = Test Example 1: storage stability of pemafibrate alone (HPLC related substances); assay type: physicochemical
# Method: In Test Examples below, measurement was performed through HPLC using an ODS column as a column and an ultraviolet spectrophotometer as a detector. 250 mg of pemafibrate was encapsulated in a polypropylene container (tight container defined in The Japanese Pharmacopoeia, 17th Edition, General Rules), and stored in a dark place at a temperature of 60° C. for 1 month. The amounts of pemafibrate-derived decomposition products (related substances) before the start of storage and after storage at 60° C. for 1 month were evaluated through the following method. The sum of related substance-derived peak areas was evaluated in terms of a ratio (%) to the pemafibrate-derived peak area using an HPLC apparatus, and the ratio was defined as the “Total amount (%) of related substances”.
# [2] = Test Example 3: interaction study, visual examination of discoloration; assay type: physicochemical
# Method: The states (the presence or absence of discoloration) of the samples before the start of storage and after storage at 60°G for 2 weeks were visually examined.
compound,measurement,setting,value
"CC[C@@H](Oc1cccc(CN(CCCOc2ccc(OC)cc2)c2nc3ccccc3o2)c1)C(=O)O [Pemafibrate alone, (2R)-2-[3-([1,3-Benzoxazol-2-yl[3-(4-methoxyphenoxy)propyl]amino]methyl)phenoxy]butanoic acid]",increase in the amount of related substances (in words),[1]; after storage at 60° C. for 1 month,no substantive increase
same,"Total amount (%) of related substances, Before storage","[1]; before start of storage, sum of related substance peak areas as ratio to pemafibrate peak area, HPLC",<0.05%
same,"Total amount (%) of related substances, After storage at 60° C. for 1 month","[1]; polypropylene tight container, dark place, 60° C., 1 month, HPLC peak area ratio",<0.05%
same,"State, Before storage",[2]; before start of storage,White
same,"State, After storage at 60° C. for 2 weeks","[2]; polypropylene tight container, dark place, 60° C., 2 weeks",White
